Test system: recombinant rabies virus 1088 strain expressing Gaussia Luciferase (GLuc) (1088/GLuc)
Type: cell-based
Settings: read-out: Anti-rabies activity

Row | Compound | IC50
1 | CC(C)CNC(=O)[C@]12NC[C@@H]3C[C@H]1CN(Cc1ccccc1)[C@H]2[C@@H]3CC(C)C (relative stereo) [IB-4] | 10 to 30 µM
2 | CC(C)C[C@@H]1[C@H]2CN[C@@]3(C(=O)NCc4ccc5ccccc5c4)[C@@H](C2)CN(Cc2ccccc2)[C@@H]13 [IB-879] | < 5 µM
3 | CC(C)CC[C@@H]1[C@H]2CN[C@@]3(C(=O)NCCC(=O)O)[C@@H](C2)CN(CC2CCCCC2)[C@@H]13 [IB-613] | 10 to 30 µM
4 | CC(C)CN1C[C@H]2C[C@]3(C(=O)NCCc4ccccc4)NC[C@H]2[C@H]1[C@H]3Cc1ccc(O)cc1 (relative stereo) [IF-567] | 10 to 30 µM
5 | CC(C)CNC(=O)[C@]12NC[C@H]3C[C@H]1CN(Cc1ccc(F)cc1)[C@H]2[C@@H]3CC(C)C [IB-630] | < 5 µM
6 | CC(C)CCN1C[C@H]2C[C@]3(C(=O)NCc4ccc(F)cc4)NC[C@H]2[C@H]1[C@H]3Cc1ccccc1 (relative stereo) [IF-547] | < 5 µM
7 | CC(C)CC[C@@H]1[C@@H]2[C@@H]3CN[C@@]1(C(=O)NCc1cccc4ccccc14)C[C@@H]3CN2CC(N)=O (relative stereo) [IF-84] | 10 to 30 µM
8 | N=C(N)NCCCNC(=O)[C@]12NC[C@H]3C[C@H]1CN(CC1CCCCC1)[C@H]2[C@@H]3CCc1ccccc1 [IB-362] | < 5 µM
9 | O=C(NCCO)[C@@]12C[C@@H]3CN(Cc4cccc5ccccc45)[C@@H]([C@@H]3CN1)[C@H]2Cc1cccc2ccccc12 [IF-614] | 10 to 30 µM
10 | O=C(NCc1cccc2ccccc12)[C@@]12C[C@@H]3CN(Cc4ccccc4)[C@@H]([C@@H]3CN1)[C@H]2Cc1ccccc1 [IF-805] | 10 to 30 µM
11 | CC(C)CCNC(=O)[C@]12NC[C@H]3C[C@H]1CN(Cc1ccc(O)cc1)[C@H]2[C@@H]3CC(C)C [IB-739] | 10 to 30 µM
12 | O=C(O)CCN1CC2CC3CNC2(C(=O)NCc2ccc(O)cc2)C1C3CCc1ccccc1 (centres unmarked) [IB-515] | 10 to 30 µM
13 | COc1ccc(CN2CC3CC4C=NC3(C(=O)NCc3ccccc3)C2C4CC(C)C)cc1 (centres unmarked) [IIB-85] | 5 to 10 µM
14 | CC(C)C[C@@H]1[C@H]2CN[C@@]3(C(=O)NCCc4ccccc4)[C@@H](C2)CN(CC(N)=O)[C@@H]13 [IB-86] | 10 to 30 µM
15 | N=C(N)NCCCNC(=O)[C@]12NC[C@H]3C[C@H]1CN(Cc1ccccc1)[C@H]2[C@@H]3Cc1cccc2ccccc12 [IB-280] | 10 to 30 µM
16 | O=C(NCc1ccc(O)cc1)C12NCC3CC1CN(Cc1ccc(F)cc1)C2C3Cc1ccccc1 (centres unmarked) [IB-583] | 10 to 30 µM
17 | N=C(N)NCCC[C@@H]1[C@@H]2[C@@H]3CN[C@@]1(C(=O)NCc1ccc(F)cc1)C[C@@H]3CN2Cc1cccc2ccccc12 [IF-245] | < 5 µM
18 | CC(C)C[C@@H]1[C@@H]2[C@@H]3CN[C@@]1(C(=O)NCc1ccc(C(F)(F)F)cc1)C[C@@H]3CN2Cc1ccccc1 [IF-838] | 10 to 30 µM
19 | Cc1ccc(CN2C[C@@H]3C[C@@H]4CN(CC(C)C)[C@]3(C(=O)NCc3ccccc3)[C@@H]2[C@@H]4CC(C)C)cc1 (relative stereo) [IB-881] | < 5 µM
20 | CC(C)CN1C[C@H]2C[C@]3(C(=O)NCc4ccccc4)NC[C@H]2[C@H]1[C@H]3CCc1ccccc1 (relative stereo) [IF-11] | 10 to 30 µM
21 | O=C(NCc1ccccc1)[C@@]12C[C@@H]3CN(Cc4ccc(F)cc4)[C@@H]([C@@H]3CN1)[C@H]2Cc1ccccc1 [IF-649] | < 5 µM
22 | CC(C)CC[C@@H]1[C@@H]2[C@@H]3CN[C@@]1(C(=O)NCCc1ccccc1)C[C@@H]3CN2Cc1ccccc1 [IF-723] | 10 to 30 µM
23 | CC(C)CC[C@@H]1[C@@H]2[C@@H]3CN[C@@]1(C(=O)NCc1ccc(O)cc1)C[C@@H]3CN2Cc1ccccc1 [IF-493] | < 5 µM
24 | NC(=O)CCNC(=O)C12NCC3CC1CN(Cc1cccc4ccccc14)C2C3Cc1ccc(O)cc1 (centres unmarked) [IB-521] | 10 to 30 µM

Row | Compound | IC50
25 | CC(C)CCNC(=O)[C@@]12C[C@@H]3CN(CCc4ccccc4)[C@@H]([C@@H]3CN1)[C@H]2Cc1ccc(O)cc1 [IF-707] | < 5 µM
26 | CC(C)CCNC(=O)[C@]12NC[C@H]3C[C@H]1CN(CC(C)C)[C@H]2[C@@H]3CCc1ccccc1 [IB-688] | < 5 µM
27 | Cc1ccc(CN2C[C@H]3C[C@@]4(C(=O)NCc5ccccc5)[C@H](CC(C)C)[C@@H]2[C@@H]3CN4CC(C)C)cc1 [IF-856] | < 5 µM
28 | O=C(O)CCNC(=O)[C@]12NC[C@H]3C[C@H]1CN(CCO)[C@H]2[C@@H]3Cc1cccc2ccccc12 [IB-610] | 10 to 30 µM
29 | CCCCCCNC(=O)[C@@]12C[C@@H]3CN(Cc4ccccc4)[C@@H]([C@@H]3CN1)[C@H]2Cc1ccc(O)cc1 [IF-692] | < 5 µM
30 | CC(C)CCN1C[C@H]2C[C@]3(C(=O)NCc4ccccc4)NC[C@H]2[C@H]1[C@H]3CC(C)C [IF-733] | < 5 µM
31 | CC(C)C[C@@H]1[C@H]2CN[C@@]3(C(=O)NCc4ccccc4)[C@@H](C2)CN(Cc2ccc(O)cc2)[C@@H]13 [IB-787] | 10 to 30 µM
32 | N=C(N)NCCC[C@@H]1[C@H]2CN[C@@]3(C(=O)NCCc4ccccc4)[C@@H](C2)CN(Cc2ccccc2)[C@@H]13 [IB-247] | 10 to 30 µM
33 | CC(C)CCN1CC2CC3CNC2(C(=O)NCc2ccc(F)cc2)C1C3CC(C)C (centres unmarked) [IB-553] | < 5 µM
34 | CC(C)CN1C[C@H]2C[C@]3(C(=O)NCc4ccc(F)cc4)NC[C@H]2[C@H]1[C@H]3Cc1ccccc1 [IF-815] | < 5 µM
35 | O=C(NCc1cccc2ccccc12)[C@]12NC[C@H]3C[C@H]1CN(Cc1cccc4ccccc14)[C@H]2[C@@H]3CCc1ccccc1 [IB-804] | < 5 µM
36 | CC(C)CCN1C[C@@H]2C[C@@H]3CN[C@]2(C(=O)NCCC(N)=O)[C@@H]1[C@@H]3Cc1cccc2ccccc12 [IB-703] | < 5 µM
37 | N=C(N)NCCCNC(=O)[C@]12NC[C@H]3C[C@H]1CN(Cc1cccc4ccccc14)[C@H]2[C@@H]3CCc1ccccc1 [IB-354] | < 5 µM
38 | CC(C)C[C@@H]1[C@@H]2[C@@H]3CN[C@@]1(C(=O)NCc1cccc4ccccc14)C[C@@H]3CN2CC(C)C [IF-726] | 10 to 30 µM
39 | O=C(O)CCNC(=O)[C@@]12C[C@@H]3CN(Cc4ccc(F)cc4)[C@@H]([C@@H]3CN1)[C@H]2Cc1cccc2ccccc12 [IF-417] | 10 to 30 µM
40 | N=C(N)NCCCN1C[C@@H]2C[C@@H]3CN[C@]2(C(=O)NCc2ccc(F)cc2)[C@@H]1[C@@H]3Cc1ccccc1 [IB-182] | 10 to 30 µM
41 | O=C(NCc1ccccc1)[C@]12NC[C@H]3C[C@H]1CN(Cc1cccc4ccccc14)[C@H]2[C@@H]3Cc1ccccc1 (relative stereo) [IB-42, (3S*,3aS*,6S*,7R*,7aS*)-N,7-dibenzyl-1-(naphthalen-1-ylmethyl)octahydro-3aH-3,6-methanopyrrolo[3,2-b]pyridine-3a-carboxamide] | 10 to 30 µM
42 | CC(C)CN1C[C@@H]2C[C@@H]3CN[C@]2(C(=O)NCc2ccc(F)cc2)[C@@H]1[C@@H]3Cc1ccc(O)cc1 [IB-498] | < 5 µM
43 | CC(C)CCN1CC2CC3C=NC2(C(=O)NCc2ccc(Cl)cc2)C1C3CC(C)C (centres unmarked) [IIB-103] | 5 to 10 µM
44 | Cc1cccc(C[C@@H]2[C@@H]3CN[C@@]4(C(=O)NCc5ccccc5)[C@@H](C3)CN(CC(C)C)[C@@H]24)c1 (relative stereo) [IB-13] | 10 to 30 µM
45 | CC(C)C[C@@H]1[C@H]2CN[C@@]3(C(=O)NCc4cccc5ccccc45)[C@@H](C2)CN(CCC(=O)O)[C@@H]13 [IB-392] | 10 to 30 µM
46 | N=C(N)NCCCNC(=O)[C@]12NC[C@H]3C[C@H]1CN(CCc1ccccc1)[C@H]2[C@@H]3Cc1cccc2ccccc12 [IB-347] | 10 to 30 µM
47 | CC(C)CCNC(=O)[C@]12NC[C@H]3C[C@H]1CN(CCO)[C@H]2[C@@H]3Cc1ccccc1 [IB-714] | < 5 µM
48 | CC(C)C[C@@H]1[C@@H]2[C@@H]3CN[C@@]1(C(=O)NCCc1ccccc1)C[C@@H]3CN2CC1CCCCC1 [IF-711] | 10 to 30 µM

Same assay, conditions: read-out: IC50

Row | Compound | IC50
49 | CC(C)CNC(=O)[C@]12NC[C@@H]3C[C@H]1CN(Cc1ccccc1)[C@H]2[C@@H]3CC(C)C (relative stereo) [IB-4] | 19.2 µM
50 | CC(C)CN1C[C@H]2C[C@]3(C(=O)NCc4ccccc4)NC[C@H]2[C@H]1[C@H]3CCc1ccccc1 (relative stereo) [IF-11] | 17.5 µM
51 | Cc1cccc(C[C@@H]2[C@@H]3CN[C@@]4(C(=O)NCc5ccccc5)[C@@H](C3)CN(CC(C)C)[C@@H]24)c1 (relative stereo) [IB-13] | 14.3 µM

Same assay, conditions: read-out: anti-rabies virus activity IC50

Row | Compound | IC50
52 | NC(=O)c1nc(F)c[nH]c1=O [Compound T-705, Favipiravir] | 30 µM

Test system: rabies virus
Settings: mouse, in vivo; cited from earlier work

Row | Compound | prophylactic effect on rabies virus
53 | NC(=O)c1nc(F)c[nH]c1=O [Compound T-705, Favipiravir] | significant prophylactic effect was confirmed

Source: patent US11780841B2, “3,6-methano-1H-pyrrolo[3,2-b]pyridine and 3,6-methano-1H-pyrrolo[3,2-c]pyridine compounds and medicaments using same” (priority 2018, dated 2023)
